US20030176351A1, “Peptides and peptide analogues designed from a diabetes-associated autoantigen, and methods for their use in the treatment and prevention of diabetes” (priority 1999, published 2003)
Where two headings read alike, the source gives them in different places.

Legend:
DR4 = conditions: Wicker et al, 1996; cited from earlier work
DR4 molecules = DR4 molecules (Homo sapiens, UniProt P01903+P01911, A100K/A169T/F76Y/I96L/K127E/L162R/M171V/N62H/P40V/Q125Y/R42H/S133A/S149N/S66Y/V115G/V209L/W38E); experiment: standard DR4-peptide fluorescent binding assay
T cell clone BRI.4-11 = experiment: prepulse antagonism assay, response to GAD65 555-567, clone BRI.4-11; type: cell-based, human
T cell clone BRI.4-10 = experiment: prepulse antagonism assay, response to GAD65 555-567, clone BRI.4-10; type: cell-based, human
[1] = tested on: T cells from Patient #6211; experiment: γIFN response of serially expanded T cells from Patient #6211 restimulated with GAD65 peptides and autologous APC; type: cell-based, human; conditions: T cells from Patient #6211 expanded in serial culture, autologous APC
Procedure: 10^5 thawed and irradiated DRB1*0404, DRB1*0405, or control (non-DR4) peripheral blood lymphocytes (PBL) in a volume of 100 μl were added to wells of 96 V-bottom plates containing peptide or medium and allowed to incubate for 2-3 hours at which time 4×10^4 T cells were added for a total volume of 200 μl-250 μl. At 20-24 hours of coculture, supernatants were harvested for cytokine determination and the wells replenished with fresh medium. At 48 hours, wells were radiolabeled with 1 μCi H^3-thymidine and cultured for an additional 18 hr. The plates were harvested on a TomTec Manual Mach III harvester and incorporated thymidine (as cpm) was determined by liquid spectroscopy on a Wallac Microbeta LSC.
Traditional sandwich ELISA were performed to test the supernatants for human γIFN, using matched antibody sets obtained from Endogen. The plates were read at 405 nm on a Microplate reader (Bio-Tek). The concentration of cytokine was estimated from standard curves using linear regression.
T cells from Patient #6211 were expanded in serial culture by restimulation with GAD65 peptides incubated with autologous APC. Specific T cell responses were present for both peptides 553-572 (53 pg/ml γIFN) and 555-567 (51 pg/ml γIFN), but not peptide 569-585 (5 pg/ml γIFN), localizing the minimal epitope to the 555-567 region. T cell clones were derived by expansion of this culture; proliferation, and cytokine response profiles for CD4^+ T cell clones BRI.4-10 and BRI.4-11 are shown in FIGS. 1A and 1B.

Question: For “554-566: GAD65 554-566 sequence, DR4-binding peptide of Wicker et al (VNFFRMVISNPAA; UniProt Q05329 554-566, looked up, fragment)”, which “DR4 binding avidity among GAD65 peptides” value (DR4) is on record?
Answer: most avid binding peptide identified

Question: What does the source list for `CSCC[C@H](NC(=O)[C@H](CCCNC(=N)N)NC(=O)[C@H](Cc1ccccc1)NC(=O)[C@H](Cc1ccccc1)NC(=O)[C@@H](N)CC(N)=O)C(=O)N[C@H](C(=O)N[C@@H](CCSC)C(=O)N[C@@H](CO)C(=O)N[C@@H](CC(N)=O)C(=O)N1CCC[C@H]1C(=O)N[C@@H](C)C(=O)N[C@@H](C)C(=O)N[C@H](C(=O)O)[C@@H](C)O)C(C)C` [561 M]?
Answer: IC50 (DR4 molecules): 400 nM; antagonism of T cell responses (proliferation and γIFN, FIGS. 2C and 2D) (T cell clone BRI.4-11; clone BRI.4-11, APC pre-pulsed with agonist peptide 555-567): more than 90%; reduction of T cell proliferative response (T cell clone BRI.4-10; clone BRI.4-10, APC pre-pulsed with agonist peptide 555-567): 80%; antagonism of γIFN cytokine response (in words) (T cell clone BRI.4-10; clone BRI.4-10, APC pre-pulsed with agonist peptide 555-567, FIG. 2B): similarly antagonized

Question: For `CSCC[C@H](NC(=O)[C@H](CCCNC(=N)N)NC(=O)[C@H](Cc1ccccc1)NC(=O)[C@H](Cc1ccccc1)NC(=O)[C@@H](N)CC(N)=O)C(=O)N[C@H](C(=O)N[C@@H](CC(C)C)C(=O)N[C@@H](CO)C(=O)N[C@@H](CC(N)=O)C(=O)N1CCC[C@H]1C(=O)N[C@@H](C)C(=O)N[C@@H](C)C(=O)N[C@H](C(=O)O)[C@@H](C)O)C(C)C` [561 L], which “antagonism of proliferative response (in words)” value (T cell clone BRI.4-11; clone BRI.4-11, highest concentration tested, APC pre-pulsed with agonist peptide) is on record?
Answer: partially antagonized

Question: With VNFFRMVISNPAATHQD [GAD 554-570] as the molecule, how does the IC50 (DR4 molecules; read-out: peptide binding: concentration of peptide giving 50% inhibition of a standard DR4-peptide fluorescent binding assay) read?
Answer: 600 nM

Question: For “553-572: GAD65 peptide of residues 553-572 (KVNFFRMVISNPAATHQDID; UniProt Q05329 553-572, looked up, fragment)”, which “γIFN, specific T cell response” value [1] is on record?
Answer: 53 pg/mL

Question: For `CC[C@H](C)[C@H](NC(=O)[C@@H](NC(=O)[C@H](CCSC)NC(=O)[C@H](CCCNC(=N)N)NC(=O)[C@H](Cc1ccccc1)NC(=O)[C@H](Cc1ccccc1)NC(=O)[C@@H](N)CC(N)=O)C(C)C)C(=O)N[C@@H](CO)C(=O)N[C@@H](CC(N)=O)C(=O)N1CCC[C@H]1C(=O)N[C@@H](C)C(=O)N[C@@H](C)C(=O)N[C@H](C(=O)O)[C@@H](C)O` [555-567], which “γIFN, specific T cell response” value [1] is on record?
Answer: 51 pg/mL

Question: Which “γIFN, specific T cell response” value [1] does the source give for “569-585: GAD65 peptide of residues 569-585 (QDIDFLIEEIERLGQDL; UniProt Q05329 569-585, looked up, fragment)” here?
Answer: 5 pg/mL
